Assay results published in patent publication US20070117784A1, “Treatment of hyperproliferative diseases with anthraquinones” (Novacea, Inc., priority 2005, published 2007).

Assays:
U87MG = test: MTS cytotoxicity assay, U87MG; assay type: cell-based; conditions: Homo sapiens, U-87 MG, normoxic, 24 h exposure
CCRF-CEM = test: MTS cytotoxicity assay, CCRF-CEM; conditions: Homo sapiens, 24 h
A375-SM = test: MTS cytotoxicity assay, A375-SM; assay type: cell-based, mouse; conditions: Homo sapiens, normoxic, 24 h exposure
RPMI8226/Dox = test: MTS cytotoxicity assay, RPMI8226/Dox; conditions: Homo sapiens, RPMI-8226, 24 h
[1] = tested on: bladder cancer cell lines; conditions: previous data; cited from earlier work
Daudi = test: MTS cytotoxicity assay, Daudi; conditions: Homo sapiens, 24 h
Raji = test: MTS cytotoxicity assay, Raji; conditions: Homo sapiens, 24 h
U251 = test: MTS cytotoxicity assay, U251; assay type: cell-based; conditions: Homo sapiens, U-251, normoxic, 24 h exposure
U118MG = test: MTS cytotoxicity assay, U118MG; assay type: cell-based; conditions: Homo sapiens, U-118-MG, normoxic, 24 h exposure
KB-3 = test: MTS cytotoxicity assay, KB-3; assay type: cell-based; conditions: KB3; KB-3 (radiation-resistant); normoxic; 24 h exposure
MiaPaCa = test: MTS cytotoxicity assay, MiaPaCa; conditions: Homo sapiens, MIA PaCa-2, 24 h
MOLT-4 = test: MTS cytotoxicity assay, MOLT-4; conditions: Homo sapiens, MOLT-4, 24 h
KG1a = test: MTS cytotoxicity assay, KG1a; conditions: Homo sapiens, KG-1a, 24 h
HL-60 = test: MTS cytotoxicity assay, HL-60; conditions: Homo sapiens, HL-60, 24 h
Hep3B2.1-7 = test: MTS cytotoxicity assay, Hep3B2.1-7; assay type: cell-based; conditions: normoxic, 24 h exposure
BXPC-3 = test: MTS cytotoxicity assay, BXPC-3; conditions: Homo sapiens, BXPC-3, 24 h
[2] = single 20 mg/kg dose of AQ4N; previous studies; cited from earlier work
CCRF-CEM/VLB = test: MTS cytotoxicity assay, CCRF-CEM/VLB; conditions: Homo sapiens, 24 h
[3] = mouse, in vivo
HT-29 = test: MTS cytotoxicity assay, HT-29; assay type: cell-based; conditions: normoxic, 24 h exposure
HCT116 = test: MTS cytotoxicity assay, HCT116; assay type: cell-based; conditions: 24 h exposure
LoVo = test: MTS cytotoxicity assay, LoVo; assay type: cell-based; conditions: normoxic, 24 h exposure
L5178Y = test: MTS cytotoxicity assay, L5178Y; conditions: Mus musculus, 24 h
L1210 = test: MTS cytotoxicity assay, L1210; conditions: Mus musculus, L1210, 24 h
FaDu = test: MTS cytotoxicity assay, FaDu; assay type: cell-based; conditions: Homo sapiens, normoxic, 24 h exposure
P388 = test: MTS cytotoxicity assay, P388; conditions: Mus musculus, P388, 24 h
K562 = test: MTS cytotoxicity assay, K562; conditions: Homo sapiens, K562, 24 h
KB = test: MTS cytotoxicity assay, KB; assay type: cell-based; conditions: Homo sapiens, normoxic, 24 h exposure
[4] = tested on: MO59K cells (glioblastoma); test: Colony formation assay, combination with temozolomide and radiation
LS174T = test: MTS cytotoxicity assay, LS174T; assay type: cell-based; conditions: normoxic, 24 h exposure
Ramos = test: MTS cytotoxicity assay, Ramos; conditions: Homo sapiens, 24 h
ARH177 = test: MTS cytotoxicity assay, ARH177; conditions: 24 h
Panc-1 = test: MTS cytotoxicity assay, Panc-1; conditions: Homo sapiens, PANC-1, 24 h
RPMI8226 = test: MTS cytotoxicity assay, RPMI8226; conditions: Homo sapiens, RPMI-8226, 24 h
Namalwa = test: MTS cytotoxicity assay, Namalwa; conditions: Homo sapiens, 24 h
B16-F10 = test: MTS cytotoxicity assay, B16-F10; assay type: cell-based, human; conditions: Mus musculus, normoxic, 24 h exposure
[5] = tested on: BxPC-3 pancreatic carcinoma (orthotopic); test: Orthotopic BxPC-3 pancreatic carcinoma model, survival; conditions: BxPC-3 ot; gemcitabine treatment; P=0.04
human Panc-1 tumors = test: sc Panc-1 pancreatic xenograft, tumor growth delay; assay type: in vivo, nude mice; conditions: Panc-1 sc, gemcitabine treatment
Protocol: Mice were actively sacrificed as a cancer death when their tumors reached 1200 mm^3. Shown are Kaplan-Meier plots summarizing the percentage of the animals remaining in the study as a function of time following tumor inoculation. Treatment outcome was determined from TGD, defined as the increase in median TTE in a treatment group as compared to the control group.
In each case, a range of AQ4N dose schedules were evaluated to determine the optimum dosage for efficacy as a single agent.
In the Panc-1 model, the endpoint of the study was pre-defined to be when tumors reached 1200 mm^3 and treatment outcome was determined from tumor growth delay (TGD). TGD is defined as the increase in median time to endpoint (TTE) in a treatment group as compared to the control group, and expressed in days or as a percentage of the median TTE vs. the control group.

[6] = tested on: human BxPC-3 pancreatic carcinoma; test: sc BxPC-3 pancreatic xenograft, tumor growth inhibition; assay type: in vivo, nude mice; conditions: BxPC-3 sc
Protocol: Shown are the mean (±SEM) tumor volumes measured from treatment and control groups following tumor challenge. The study was terminated when tumors from the vehicle-treated group reached an average of approximately 2 grams (day 27) and the % TGI was calculated as defined in the text. […] Animals were actively sacrificed when they became moribund from excessive tumor burden.

With `CN(C)CCNc1ccc(NCCN(C)C)c2c1C(=O)c1c(O)ccc(O)c1C2=O` [AQ4, 1,4-bis{[2-(dimethylamino)ethyl]amino}-5,8-dihydroxyanthracene-9,10-dione] as the molecule, how does the IC50 (U87MG) read?
The IC50 was 0.9 µM.

What about the IC50 (CCRF-CEM) of the same molecule?
The IC50 was 0.62 µM.

And the IC50 (A375-SM)?
Its IC50 is 3.3 µM.

What about the IC50 (RPMI8226/Dox) of the same molecule?
Its IC50 is 1.1 µM.

What about the interaction with radiation [1] of the same molecule?
The interaction with radiation was “additive interactions”.

And the IC50 (Daudi)?
Its IC50 is 0.0046 µM.

What about the IC50 (Raji) of the same molecule?
Its IC50 is 0.2 µM.

What about the IC50 (U251) of the same molecule?
Its IC50 is 0.6 µM.

What about the IC50 (U118MG) of the same molecule?
Its IC50 is 1.3 µM.

And the IC50 (KB-3)?
Its IC50 is 3.3 µM.

What about the IC50 (MiaPaCa) of the same molecule?
The IC50 was 1.6 µM.

And the IC50 (MOLT-4)?
Its IC50 is 0.002 µM.

What about the IC50 (KG1a) of the same molecule?
The IC50 was 0.05 µM.

And the IC50 (HL-60)?
Its IC50 is 0.01 µM.

What about the IC50 (Hep3B2.1-7) of the same molecule?
The IC50 was 0.8 µM.

And the IC50 (BXPC-3)?
The IC50 was 1.6 µM.

What about the “time AQ4 can be detected in tumor tissues” value [2] of the same molecule?
The value was “at least 2 weeks”.

What about the IC50 (CCRF-CEM/VLB) of the same molecule?
The IC50 was 0.34 µM.

What about the “tumor accumulation vs dose” value ([3]; 240 mg/kg) of the same molecule?
Its value is “dose-dependent fashion”.

What about the “percent of near maximal tumor levels after 2 hr post-infusion” value ([3]; 2 h) of the same molecule?
Its value is 55-85%.

And the “percent of conversion occurring by 8 hr” value ([3]; 8 h)?
Its value is 80-100%.

And the IC50 (HT-29; Homo sapiens)?
Its IC50 is 0.7 µM.

And the IC50 (HCT116; Homo sapiens, HCT-116, normoxic)?
The IC50 was 3.9 µM.

And the IC50 (LoVo; Homo sapiens)?
The IC50 was 0.21 µM.

And the IC50 (L5178Y)?
Its IC50 is 0.03 µM.

And the IC50 (L1210)?
The IC50 was 0.0012 µM.

And the IC50 (FaDu)?
The IC50 was 0.3 µM.

And the IC50 (P388)?
The IC50 was 0.01 µM.

What about the IC50 (K562) of the same molecule?
The IC50 was 0.4 µM.

What about the IC50 (KB) of the same molecule?
The IC50 was 0.6 µM.

And the “combined cytotoxic effect with temozolomide and radiation” value ([4]; 48 hr combined treatment, 1.5 Gy at 24 hr, FIG. 24)?
Its value is “additive and synergistic cytotoxic effects”.

And the “combined cytotoxic effect with temozolomide” value ([4]; 48 hr temozolomide, 10-day colony formation, FIG. 23)?
The value was “additive and synergistic cytotoxic effects”.

And the IC50 (LS174T; Homo sapiens)?
The IC50 was 0.95 µM.

And the IC50 (Ramos)?
Its IC50 is 0.008 µM.

And the IC50 (ARH177)?
Its IC50 is 0.2 µM.

And the IC50 (Panc-1)?
The IC50 was 0.4 µM.

And the IC50 (RPMI8226)?
The IC50 was 0.2 µM.

What about the IC50 (Namalwa) of the same molecule?
Its IC50 is 0.0002 µM.

And the IC50 (B16-F10)?
Its IC50 is 0.02 µM.

For `CN(C)CCNc1ccc(NCC[N+](C)(C)[O-])c2c1C(=O)c1c(O)ccc(O)c1C2=O` [AQ4M], which “plasma level at 2 hr” value (240 mg/kg AQ4N dose) is on record?
The value was “only trace amounts”.

What about the “metabolite detection in plasma” value (any AQ4N dose or time point) of the same molecule?
The value was “undetectable”.

What about the “tumor level by 8 h” value [3] of the same molecule?
Its value is “minimal levels by 8 h for most doses”.

What about the “tumor level vs dose at 2 hr” value [3] of the same molecule?
The value was “approximately linear with increasing dose”.

Which IC50 (U87MG) does the source give for `COc1cccc2c1C(=O)c1c(O)c3c(c(O)c1C2=O)C[C@@](O)(C(=O)CO)C[C@@H]3O[C@H]1C[C@H](N)[C@H](O)[C@H](C)O1` [Dox, doxorubicin, reference compound] here?
Its IC50 is 0.4 µM.

And the IC50 (RPMI8226/Dox)?
Its IC50 is 54.7 µM.

What about the IC50 (Daudi) of the same molecule?
Its IC50 is 0.0005 µM.

And the IC50 (Raji)?
The IC50 was 0.0009 µM.

What about the IC50 (U251) of the same molecule?
Its IC50 is 0.03 µM.

What about the IC50 (U118MG) of the same molecule?
The IC50 was 0.03 µM.

What about the IC50 (MOLT-4) of the same molecule?
The IC50 was 0.0075 µM.

And the IC50 (KG1a)?
The IC50 was 0.6 µM.

And the IC50 (HL-60)?
Its IC50 is 0.1 µM.

What about the IC50 (L5178Y) of the same molecule?
The IC50 was 0.05 µM.

And the IC50 (L1210)?
The IC50 was 0.05 µM.

And the IC50 (P388)?
Its IC50 is 0.1 µM.

And the IC50 (Ramos)?
The IC50 was 0.0018 µM.

And the IC50 (RPMI8226)?
Its IC50 is 0.1 µM.

What about the IC50 (Namalwa) of the same molecule?
The IC50 was 0.0074 µM.

With `CCc1c2c(nc3ccc(O)cc13)-c1cc3c(c(=O)n1C2)COC(=O)[C@]3(O)CC` [SN38, 7-ethyl-10-hydro-camptothecin, reference compound] as the molecule, how does the IC50 (HT-29) read?
The IC50 was 0.0651 µM.

What about the IC50 (HCT116; normoxic) of the same molecule?
The IC50 was 0.0484 µM.

And the IC50 (LoVo)?
The IC50 was 0.0006 µM.

What about the IC50 (LS174T) of the same molecule?
The IC50 was 0.0026 µM.

Which IC50 (KB-3) does the source give for `CC(=O)O[C@H]1C(=O)[C@@]2(C)[C@H]([C@H](OC(=O)c3ccccc3)[C@]3(O)C[C@H](OC(=O)[C@H](O)[C@@H](NC(=O)c4ccccc4)c4ccccc4)C(C)=C1C3(C)C)[C@]1(OC(C)=O)CO[C@@H]1C[C@@H]2O` [Taxol, reference compound] here?
The IC50 was 19.1 µM.

What about the IC50 (Hep3B2.1-7) of the same molecule?
The IC50 was 13.7 µM.

And the IC50 (FaDu)?
The IC50 was 6.5 µM.

What about the IC50 (KB) of the same molecule?
Its IC50 is 2 µM.

Which results are given for `CCC1=C[C@@H]2CN(C1)Cc1c([nH]c3ccccc13)[C@@](C(=O)OC)(c1cc3c(cc1OC)N(C)[C@H]1[C@@](O)(C(=O)OC)[C@H](OC(C)=O)[C@]4(CC)C=CCN5CC[C@]31[C@@H]54)C2` [VLB, vinorelbine, reference compound]?
IC50 (CCRF-CEM): 0.01 µM; IC50 (CCRF-CEM/VLB): 1040 µM

With `Nc1ccn([C@@H]2O[C@H](CO)[C@@H](O)C2(F)F)c(=O)n1` [gemcitabine] as the molecule, how does the median survival [5] read?
The median survival was 40 days.

What about the IC50 (MiaPaCa) of the same molecule?
Its IC50 is 0.023 µM.

What about the IC50 (BXPC-3) of the same molecule?
The IC50 was 0.0595 µM.

And the “TGD as percentage of median TTE vs control” value (human Panc-1 tumors)?
The value was 19%.

What about the TTE (human Panc-1 tumors; endpoint 1200 mm^3) of the same molecule?
The TTE was 34.2 days.

What about the “TGD (tumor growth delay)” value (human Panc-1 tumors; non-significant) of the same molecule?
Its value is 5.4 days.

What about the IC50 (Panc-1) of the same molecule?
Its IC50 is 1.7 µM.

And the TGI ([6]; gemcitabine treatment, ~day 27)?
The TGI was 51%.

And the “TGI in comparison to vehicle-treated groups” value ([6]; single-agent, p<0.001, FIG. 20A)?
The value was “significant TGI”.
